Reference: US10011611B2, “Histone deacetylase inhibitors and methods for use thereof” (Reaction Biology Corp., priority 2015, dated 2018)

Tests used:
Human HDAC2 = Human HDAC2 (Homo sapiens (Human), UniProt Q92769); assay: HDAC2 biochemical fluorescent activity assay; conditions: substrate Arg-His-Lys-Lys(Ac)
Human HDAC5 = Human HDAC5 (Homo sapiens (Human), UniProt Q9UQL6); assay: HDAC5 biochemical fluorescent activity assay
Human HDAC1 = Human HDAC1 (Homo sapiens (Human), UniProt Q13547); assay: HDAC1 biochemical fluorescent activity assay; conditions: substrate Arg-His-Lys-Lys(Ac)
Chain of Human HDAC1 (Q13547 whole entry): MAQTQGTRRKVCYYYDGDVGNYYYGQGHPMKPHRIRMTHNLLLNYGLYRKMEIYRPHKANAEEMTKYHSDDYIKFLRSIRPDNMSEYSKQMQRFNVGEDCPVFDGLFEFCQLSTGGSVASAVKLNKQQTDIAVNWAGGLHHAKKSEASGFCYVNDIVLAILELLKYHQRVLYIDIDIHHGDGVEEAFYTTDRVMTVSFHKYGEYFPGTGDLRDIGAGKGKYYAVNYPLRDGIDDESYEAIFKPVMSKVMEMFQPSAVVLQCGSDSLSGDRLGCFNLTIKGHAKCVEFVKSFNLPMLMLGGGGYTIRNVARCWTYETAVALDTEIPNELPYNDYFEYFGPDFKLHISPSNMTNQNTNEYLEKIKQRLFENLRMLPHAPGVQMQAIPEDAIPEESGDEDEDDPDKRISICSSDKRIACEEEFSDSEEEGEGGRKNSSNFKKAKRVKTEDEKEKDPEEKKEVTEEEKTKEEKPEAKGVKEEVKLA

Recombinant human HDAC6 = Recombinant human HDAC6 (Homo sapiens (Human), UniProt Q9UBN7); assay: HDAC6 biochemical fluorescent activity assay; conditions: substrate Arg-His-Lys-Lys(Ac)
Chain of Recombinant human HDAC6 (Q9UBN7 whole entry): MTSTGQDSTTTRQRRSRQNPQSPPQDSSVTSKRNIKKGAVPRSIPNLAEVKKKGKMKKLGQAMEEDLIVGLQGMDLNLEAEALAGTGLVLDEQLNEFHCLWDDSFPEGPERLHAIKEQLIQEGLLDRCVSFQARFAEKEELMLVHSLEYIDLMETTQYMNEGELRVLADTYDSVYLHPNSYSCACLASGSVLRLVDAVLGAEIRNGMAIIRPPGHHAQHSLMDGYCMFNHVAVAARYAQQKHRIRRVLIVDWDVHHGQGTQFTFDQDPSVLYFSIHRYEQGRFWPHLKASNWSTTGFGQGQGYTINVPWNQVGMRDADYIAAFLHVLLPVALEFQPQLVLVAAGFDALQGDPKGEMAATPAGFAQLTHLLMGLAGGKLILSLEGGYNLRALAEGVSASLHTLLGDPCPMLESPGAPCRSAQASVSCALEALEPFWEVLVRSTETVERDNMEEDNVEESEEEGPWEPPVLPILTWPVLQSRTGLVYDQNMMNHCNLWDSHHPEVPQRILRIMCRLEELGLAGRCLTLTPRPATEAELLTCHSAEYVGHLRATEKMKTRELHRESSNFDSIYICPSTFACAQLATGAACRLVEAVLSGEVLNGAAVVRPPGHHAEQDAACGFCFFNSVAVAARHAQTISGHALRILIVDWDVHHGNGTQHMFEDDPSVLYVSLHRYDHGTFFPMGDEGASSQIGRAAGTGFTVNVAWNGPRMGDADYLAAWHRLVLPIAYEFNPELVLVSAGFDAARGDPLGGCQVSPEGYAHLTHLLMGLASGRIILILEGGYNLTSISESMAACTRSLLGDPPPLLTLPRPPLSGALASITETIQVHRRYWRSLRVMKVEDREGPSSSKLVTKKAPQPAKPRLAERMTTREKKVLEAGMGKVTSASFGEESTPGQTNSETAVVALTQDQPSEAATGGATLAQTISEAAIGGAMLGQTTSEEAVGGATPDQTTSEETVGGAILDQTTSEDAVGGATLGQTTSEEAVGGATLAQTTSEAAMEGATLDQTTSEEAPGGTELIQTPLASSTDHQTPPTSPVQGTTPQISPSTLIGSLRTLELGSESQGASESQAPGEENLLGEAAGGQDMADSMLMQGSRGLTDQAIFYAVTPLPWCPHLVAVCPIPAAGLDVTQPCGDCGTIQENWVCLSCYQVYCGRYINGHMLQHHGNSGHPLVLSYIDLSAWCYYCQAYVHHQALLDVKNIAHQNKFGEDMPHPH

Human HDAC11 = Human HDAC11 (Homo sapiens (Human), UniProt Q96DB2); assay: HDAC11 biochemical fluorescent activity assay; conditions: substrate Arg-His-Lys-Lys(Ac)
Chain of Human HDAC11 (Q96DB2 whole entry): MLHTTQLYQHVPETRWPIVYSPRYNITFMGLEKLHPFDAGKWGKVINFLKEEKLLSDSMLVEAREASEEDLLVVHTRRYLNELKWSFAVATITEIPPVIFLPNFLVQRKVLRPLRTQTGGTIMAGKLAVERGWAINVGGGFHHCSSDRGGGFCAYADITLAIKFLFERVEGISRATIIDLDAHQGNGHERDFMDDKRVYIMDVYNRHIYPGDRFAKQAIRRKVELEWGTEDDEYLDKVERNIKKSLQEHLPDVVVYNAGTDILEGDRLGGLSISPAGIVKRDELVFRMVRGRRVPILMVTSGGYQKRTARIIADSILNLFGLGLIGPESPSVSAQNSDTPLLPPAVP

Human HDAC10 = Human HDAC10 (Homo sapiens (Human), UniProt Q969S8); assay: HDAC10 biochemical fluorescent activity assay; conditions: substrate Arg-His-Lys-Lys(Ac)
Chain of Human HDAC10 (Q969S8 1-481): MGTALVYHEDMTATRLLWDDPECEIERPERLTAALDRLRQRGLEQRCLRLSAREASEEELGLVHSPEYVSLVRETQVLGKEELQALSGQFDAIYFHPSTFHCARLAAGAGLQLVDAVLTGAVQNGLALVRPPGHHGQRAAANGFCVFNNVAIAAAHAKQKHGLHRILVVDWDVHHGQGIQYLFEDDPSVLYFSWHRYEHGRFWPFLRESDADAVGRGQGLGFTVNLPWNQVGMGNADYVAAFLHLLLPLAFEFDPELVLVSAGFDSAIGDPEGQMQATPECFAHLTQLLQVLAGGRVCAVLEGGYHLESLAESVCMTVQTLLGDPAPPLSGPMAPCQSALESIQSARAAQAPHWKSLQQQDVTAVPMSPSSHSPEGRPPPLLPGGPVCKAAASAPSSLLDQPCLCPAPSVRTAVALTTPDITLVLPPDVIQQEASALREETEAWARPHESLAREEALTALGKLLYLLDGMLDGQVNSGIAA

Human HDAC8 = Human HDAC8 (Homo sapiens (Human), UniProt Q9BY41); assay: HDAC8 biochemical fluorescent activity assay; conditions: substrate Arg-His-Lys(Ac)-Lys(Ac)
Chain of Human HDAC8 (Q9BY41 whole entry): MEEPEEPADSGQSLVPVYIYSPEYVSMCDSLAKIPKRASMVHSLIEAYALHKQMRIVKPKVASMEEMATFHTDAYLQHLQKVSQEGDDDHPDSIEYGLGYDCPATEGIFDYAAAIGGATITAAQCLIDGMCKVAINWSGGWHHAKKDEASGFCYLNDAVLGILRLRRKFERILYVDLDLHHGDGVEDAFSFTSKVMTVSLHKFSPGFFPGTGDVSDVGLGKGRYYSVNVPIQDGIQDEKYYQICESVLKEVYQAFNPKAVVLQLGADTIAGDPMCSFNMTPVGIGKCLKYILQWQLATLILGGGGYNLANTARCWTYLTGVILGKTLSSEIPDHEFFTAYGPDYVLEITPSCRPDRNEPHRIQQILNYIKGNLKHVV

Chain of Human HDAC5 (Q9UQL6 whole entry): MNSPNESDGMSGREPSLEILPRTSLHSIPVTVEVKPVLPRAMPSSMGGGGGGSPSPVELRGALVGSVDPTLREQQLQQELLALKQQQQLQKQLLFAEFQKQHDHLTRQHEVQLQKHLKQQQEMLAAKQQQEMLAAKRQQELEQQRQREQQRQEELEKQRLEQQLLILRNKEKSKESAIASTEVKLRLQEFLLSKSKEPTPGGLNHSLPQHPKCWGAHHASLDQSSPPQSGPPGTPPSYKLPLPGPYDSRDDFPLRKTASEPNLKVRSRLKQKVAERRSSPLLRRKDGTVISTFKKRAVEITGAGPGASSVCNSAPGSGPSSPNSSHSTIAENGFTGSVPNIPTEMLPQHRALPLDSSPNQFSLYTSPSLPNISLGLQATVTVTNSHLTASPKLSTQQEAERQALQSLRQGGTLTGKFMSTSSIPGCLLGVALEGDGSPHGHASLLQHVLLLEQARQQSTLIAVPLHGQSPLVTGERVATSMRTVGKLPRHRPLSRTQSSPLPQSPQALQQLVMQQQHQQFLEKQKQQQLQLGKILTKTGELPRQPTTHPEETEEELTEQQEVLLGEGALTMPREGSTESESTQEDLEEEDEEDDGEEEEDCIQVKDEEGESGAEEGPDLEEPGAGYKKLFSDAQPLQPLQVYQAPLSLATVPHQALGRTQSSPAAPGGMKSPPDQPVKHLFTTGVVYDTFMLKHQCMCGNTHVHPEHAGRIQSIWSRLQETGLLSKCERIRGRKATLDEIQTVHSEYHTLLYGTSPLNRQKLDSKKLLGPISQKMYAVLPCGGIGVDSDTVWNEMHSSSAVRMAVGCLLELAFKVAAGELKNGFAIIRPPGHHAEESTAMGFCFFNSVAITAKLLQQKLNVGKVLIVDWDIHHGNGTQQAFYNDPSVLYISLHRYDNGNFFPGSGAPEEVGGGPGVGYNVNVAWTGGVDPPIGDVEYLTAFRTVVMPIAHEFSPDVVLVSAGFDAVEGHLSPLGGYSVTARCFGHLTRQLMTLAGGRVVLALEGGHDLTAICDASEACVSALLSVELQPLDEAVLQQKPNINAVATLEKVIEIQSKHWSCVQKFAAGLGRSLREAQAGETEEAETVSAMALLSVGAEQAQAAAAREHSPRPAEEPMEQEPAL
Chain of Human HDAC2 (Q92769 whole entry): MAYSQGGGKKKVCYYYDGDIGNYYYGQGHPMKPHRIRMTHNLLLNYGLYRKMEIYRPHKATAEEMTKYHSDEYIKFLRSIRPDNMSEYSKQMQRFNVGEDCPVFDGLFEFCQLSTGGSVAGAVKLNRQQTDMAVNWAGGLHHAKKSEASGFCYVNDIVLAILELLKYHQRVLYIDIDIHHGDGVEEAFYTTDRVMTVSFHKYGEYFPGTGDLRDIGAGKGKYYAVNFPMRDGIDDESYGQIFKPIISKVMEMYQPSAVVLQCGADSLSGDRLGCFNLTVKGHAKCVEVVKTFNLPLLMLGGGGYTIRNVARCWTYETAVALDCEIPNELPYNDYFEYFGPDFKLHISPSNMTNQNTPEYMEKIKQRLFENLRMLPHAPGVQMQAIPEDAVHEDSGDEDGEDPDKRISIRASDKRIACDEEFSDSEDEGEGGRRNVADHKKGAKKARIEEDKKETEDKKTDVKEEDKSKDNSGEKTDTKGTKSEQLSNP

IC50 (Human HDAC2): 5400 nM
IC50 (Human HDAC5): 508 nM
IC50 (Human HDAC1): 175 nM
IC50 (Recombinant human HDAC6): 0.958 nM
IC50 (Human HDAC11): 2840 nM
IC50 (Human HDAC10): 4260 nM
IC50 (Human HDAC8): 27.1 nM
Structure (SMILES): O=C(NO)c1ccc(Cn2sc3ncccc3c2=O)cc1 [RBC-3001-A, N-hydroxy-4-((3-oxoisothiazolo[5,4-b]pyridin-2(3H)-yl)methyl)benzamide]
